In patent publication US9044388B2, “Dry eye treatment” (Ocular Research of Boston, Inc., priority 2005, dated 2015):
Blank lines part the entries; values can stand above or below the compound they belong to.

How the values were obtained:
eye [1] = assay: Subjective sensation / stinging of emulsions and their surfactants on the eye; format: in vivo, human; settings: higher concentration as sole primary surfactant
Method: The subjective sensation realized with both formulations was evaluated as comfortable, and without any form of adverse sensation.

[2] = result in words; cited from earlier work
ocular surface = assay: Evaluation of comfort on the eye (sensation after one drop); format: in vivo, human; settings: even in concentrations ≦0.10%
Method: The vehicle used for all formulations was Unisol 4, a buffered saline solution marketed by Alcon Laboratories, Fort Worth, Tex. Unisol 4 had previously been studied and found to be the most comfortable normal saline product for use on the ocular surface. It was therefore used as a vehicle for the test formulations, and was also used as a control. A drop of each of the 5 test formulations was placed on to the ocular surfaces of each subject, utilizing a 15 ml dropper container that delivered a drop of 40 μl to the ocular surface. […] The results obtained with 6 subjects, all of whom evaluated each of the test formulation on two different days are summarized in Table 3.

eye [3] = settings: in vivo; cited from earlier work

- effect of higher surfactant concentration on the eye (eye [1]): led to stinging on the eye
Compound: CCCCCCCC/C=C\CCCCCCCC(=O)OCCOCC(OCCO)C1OCC(OCCO)C1OCCO (stereo not shown) [Polysorbate-80]

Compound: CCCCCCCCCCCCCCCCCC(=O)OCC(O)CO (stereo not shown) [GMS, glycerol monostearate]
- solubility [2]: oil soluble

- sting when applied to the eye and ocular surfaces (ocular surface): sting
Compound: sorbitan monolaurate [Span 20]

Compound: polyoxyethylene (40) stearate [Myrj-52]
- ocular discomfort on increasing the concentration (eye [3]): significant stinging
